Assay results published in US8399494B2, “2,5-disubstituted phenyl carboxamide orexin receptor antagonists” (Merck Sharp & Dohme Corp., priority 2008, dated 2013).

Molecular target: T1, OX2R (Homo sapiens, UniProt O43614)
T1 construct: expressed in transfected cells; host or cells: CHO cells (membranes)
T1 sequence (O43614 1-444): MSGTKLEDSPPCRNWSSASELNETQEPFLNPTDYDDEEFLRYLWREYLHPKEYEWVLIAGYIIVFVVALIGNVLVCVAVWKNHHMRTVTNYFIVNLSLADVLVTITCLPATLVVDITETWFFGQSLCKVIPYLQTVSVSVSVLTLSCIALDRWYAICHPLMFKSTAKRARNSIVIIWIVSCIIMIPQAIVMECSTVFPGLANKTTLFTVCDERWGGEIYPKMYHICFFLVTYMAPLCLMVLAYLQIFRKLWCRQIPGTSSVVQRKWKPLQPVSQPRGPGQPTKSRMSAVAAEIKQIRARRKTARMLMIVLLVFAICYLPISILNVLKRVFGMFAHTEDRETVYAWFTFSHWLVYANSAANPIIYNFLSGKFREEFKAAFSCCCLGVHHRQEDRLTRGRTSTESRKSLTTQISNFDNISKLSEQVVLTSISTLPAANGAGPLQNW
Test: radioligand binding assay, OX2 receptor
Conditions: membranes prepared from CHO cells expressing OX2 receptor

Row | SMILES | Ki [pM]
1 | COc1ccc(CNC(=O)c2cc(-c3cc(Cl)cc(Cl)c3)ccc2-c2cccnc2)cc1OC [1-6, 3′,5′-dichloro-N-(3,4-dimethoxybenzyl)-4-pyridin-3-ylbiphenyl-3-carboxamide] | 120
2 | CCc1nc(CNC(=O)c2cc(-c3cncc(C)c3)ccc2-c2cnn(C)c2)ccc1OC [1-17, N-[(6-ethyl-5-methoxypyridin-2-yl)methyl]-2-(1-methyl-1H-pyrazol-4-yl)-5-(5-methylpyridin-3-yl)benzamide] | 1300
